This note sets out measurements from ChEMBL document CHEMBL4184222, “A multifaceted approach to identify non-specific enzyme inhibition: Application to Mycobacterium tuberculosis shikimate kinase” (Bioorg Med Chem Lett, 2018).

In brackets after ≈: the same amount, converted by molar mass.

Data set [1] is described as follows: Aggregation property of the compound in water at pH 7 assessed as particle size at 10 uM in presence of Triton X-100 by dynamic light scattering method. In kind it is physicochemical. Conditions: buffer, pH 7, 10 µM; call rule not given here.
Data set [2] is described as follows: Aggregation property of the compound in ammonium acetate buffer at pH 7.6 assessed as particle size at 10 uM in presence of Triton X-100 by dynamic light scattering method. The class given is physicochemical. The settings on record: pH 7.6, 10 µM.
Data set [3] can be described thus: Aggregation property of the compound in water at pH 7 assessed as light scattering intensity counts at 3 uM in absence of Triton X-100 by dynamic light scattering method. Conditions: buffer, pH 7, 3 µM. The class given is physicochemical.
Data set [4] in a line: Aggregation property of the compound in ammonium acetate buffer at pH 7.6 assessed as particle size at 3 uM in presence of Triton X-100 by dynamic light scattering method. The class given is physicochemical. The settings on record: pH 7.6, 3 µM.
Data set [5] concerns Mycobacterium tuberculosis. In words: Inhibition of Mycobacterium tuberculosis shikimate kinase assessed as reduction in S3P production at 30 uM pre-incubated with 0.02 uM enzyme for 30 mins before ATP and shikimate substrate addition in absence of Triton X-100 by LC-MS assay.
Data set [6] is described as follows: Aggregation property of the compound in ammonium acetate buffer at pH 7.6 assessed as particle size at 30 uM in presence of Triton X-100 by dynamic light scattering method. The class given is physicochemical. Conditions: pH 7.6, 30 µM.
A short description of data set [7]: Aggregation property of the compound in water at pH 7 assessed as light scattering intensity counts at 10 uM in absence of Triton X-100 by dynamic light scattering method. In kind it is physicochemical. Conditions: buffer, pH 7, 10 µM.
Data set [8] in a line: Aggregation property of the compound in ammonium acetate buffer at pH 7.6 assessed as particle size at 3 uM in absence of Triton X-100 by dynamic light scattering method. In kind it is physicochemical. The settings on record: pH 7.6, 3 µM.
Data set [9] in a line: Aggregation property of the compound in ammonium acetate buffer at pH 7.6 assessed as light scattering intensity counts at 10 uM in absence of Triton X-100 by dynamic light scattering method. The class given is physicochemical. The settings on record: pH 7.6, 10 µM.
Data set [10] in a line: Aggregation property of the compound in water at pH 7 assessed as particle size at 30 uM in absence of Triton X-100 by dynamic light scattering method. The settings on record: buffer, pH 7, 30 µM. In kind it is physicochemical.
Data set [11] in a line: Aggregation property of the compound in water at pH 7 assessed as particle size at 3 uM in absence of Triton X-100 by dynamic light scattering method. The settings on record: buffer, pH 7, 3 µM. In kind it is physicochemical.
The nature of data set [12]: Aggregation property of the compound in water at pH 7 assessed as light scattering intensity counts at 30 uM in presence of Triton X-100 by dynamic light scattering method. Conditions: buffer, pH 7, 30 µM. The class given is physicochemical.
Data set [13] in a line: Aggregation property of the compound in water at pH 7 assessed as light scattering intensity counts at 3 uM in presence of Triton X-100 by dynamic light scattering method. The class given is physicochemical. Conditions: buffer, pH 7, 3 µM.
Data set [14] is described as follows: Aggregation property of the compound in ammonium acetate buffer at pH 7.6 assessed as particle size at 30 uM in absence of Triton X-100 by transmission electron microscopy. The class given is physicochemical. The settings on record: pH 7.6, 30 µM.
Data set [15] in a line: Aggregation property of the compound in ammonium acetate buffer at pH 7.6 assessed as light scattering intensity counts at 30 uM in presence of Triton X-100 by dynamic light scattering method. In kind it is physicochemical. The settings on record: pH 7.6, 30 µM.
Data set [16] can be described thus: Aggregation property of the compound in ammonium acetate buffer at pH 7.6 assessed as particle size at 30 uM in absence of Triton X-100 by dynamic light scattering method. In kind it is physicochemical. Conditions: pH 7.6, 30 µM.
A short description of data set [17]: Aggregation property of the compound in water at pH 7 assessed as particle size at 3 uM in presence of Triton X-100 by dynamic light scattering method. In kind it is physicochemical. Conditions: buffer, pH 7, 3 µM.
Data set [18] is described as follows: Aggregation property of the compound in ammonium acetate buffer at pH 7.6 assessed as particle size at 30 uM in presence of Triton X-100 by transmission electron microscopy. The class given is physicochemical. The settings on record: pH 7.6, 30 µM.
A short description of data set [19]: Inhibition of Mycobacterium tuberculosis shikimate kinase assessed as reduction in S3P production […] pre-incubated with 0.015 uM enzyme for 30 mins before ATP and shikimate substrate addition by LC-MS assay.
The subject of data set [20] is Mycobacterium tuberculosis. Description: Inhibition of Mycobacterium tuberculosis shikimate kinase assessed as reduction in S3P production at 30 uM pre-incubated with 0.02 uM enzyme for 30 mins before ATP and shikimate substrate addition in presence of Triton X-100 by LC-MS assay.
Data set [21] is described as follows: Aggregation property of the compound in water at pH 7 assessed as light scattering intensity counts at 10 uM in presence of Triton X-100 by dynamic light scattering method. In kind it is physicochemical. The settings on record: buffer, pH 7, 10 µM.
Data set [22] in a line: Aggregation property of the compound in ammonium acetate buffer at pH 7.6 assessed as light scattering intensity counts at 10 uM in presence of Triton X-100 by dynamic light scattering method. In kind it is physicochemical. The settings on record: pH 7.6, 10 µM.
Data set [23] is described as follows: Aggregation property of the compound in ammonium acetate buffer at pH 7.6 assessed as light scattering intensity counts at 3 uM in absence of Triton X-100 by dynamic light scattering method. The class given is physicochemical. The settings on record: pH 7.6, 3 µM.
Data set [24] is described as follows: Aggregation property of the compound in ammonium acetate buffer at pH 7.6 assessed as particle size at 10 uM in absence of Triton X-100 by dynamic light scattering method. In kind it is physicochemical. Conditions: pH 7.6, 10 µM.
In data set [25] the test system is Mycobacterium tuberculosis. In words: Inhibition of Mycobacterium tuberculosis shikimate kinase assessed as reduction in S3P production at 30 uM pre-incubated with 0.2 uM enzyme for 30 mins before ATP and shikimate substrate addition in presence of Triton X-100 by LC-MS assay.
Data set [26] can be described thus: Aggregation property of the compound in water at pH 7 assessed as light scattering intensity counts at 30 uM in absence of Triton X-100 by dynamic light scattering method. The class given is physicochemical. The settings on record: buffer, pH 7, 30 µM.
The nature of data set [27]: Aggregation property of the compound in ammonium acetate buffer at pH 7.6 assessed as light scattering intensity counts at 3 uM in presence of Triton X-100 by dynamic light scattering method. In kind it is physicochemical. Conditions: pH 7.6, 3 µM.
Data set [28] in a line: Aggregation property of the compound in water at pH 7 assessed as particle size at 30 uM in presence of Triton X-100 by dynamic light scattering method. In kind it is physicochemical. The settings on record: buffer, pH 7, 30 µM.
Data set [29] is described as follows: Aggregation property of the compound in water at pH 7 assessed as particle size at 10 uM in absence of Triton X-100 by dynamic light scattering method. The class given is physicochemical. The settings on record: buffer, pH 7, 10 µM.
For data set [30], the system named is Mycobacterium tuberculosis. Description: Inhibition of Mycobacterium tuberculosis shikimate kinase assessed as reduction in S3P production at 30 uM pre-incubated with 0.2 uM enzyme for 30 mins before ATP and shikimate substrate addition in absence of Triton X-100 by LC-MS assay.
Data set [31] is described as follows: Aggregation property of the compound in ammonium acetate buffer at pH 7.6 assessed as light scattering intensity counts at 30 uM in absence of Triton X-100 by dynamic light scattering method. The class given is physicochemical. The settings on record: pH 7.6, 30 µM.
A short description of data set [32]: Aggregation property of the compound in ammonium acetate buffer at pH 7.6 assessed as particle size at 100 uM in absence of Triton X-100 by dynamic light scattering method. The class given is physicochemical. Conditions: pH 7.6, 100 µM.
A short description of data set [33]: Aggregation property of the compound in water at pH 7 assessed as particle size at 100 uM in presence of Triton X-100 by dynamic light scattering method. The settings on record: buffer, pH 7, 100 µM. In kind it is physicochemical.
A short description of data set [34]: Aggregation property of the compound in water at pH 7 assessed as light scattering intensity counts at 100 uM in absence of Triton X-100 by dynamic light scattering method. The class given is physicochemical. The settings on record: buffer, pH 7, 100 µM.
The nature of data set [35]: Aggregation property of the compound in ammonium acetate buffer at pH 7.6 assessed as light scattering intensity counts at 100 uM in absence of Triton X-100 by dynamic light scattering method. The class given is physicochemical. Conditions: pH 7.6, 100 µM.
The nature of data set [36]: Inhibition of Mycobacterium tuberculosis shikimate kinase assessed as reduction in S3P production pre-incubated for 30 mins before ATP and shikimate substrate addition by LC-MS assay.
Data set [37] in a line: Aggregation property of the compound in ammonium acetate buffer at pH 7.6 assessed as light scattering intensity counts at 100 uM in presence of Triton X-100 by dynamic light scattering method. In kind it is physicochemical. Conditions: pH 7.6, 100 µM.
Data set [38] concerns Mycobacterium tuberculosis. In words: Antimycobacterial activity against Mycobacterium tuberculosis H37Rv. In kind it is functional.
Data set [39] has as its system Mycobacterium tuberculosis. In words: Inhibition of Mycobacterium tuberculosis shikimate kinase assessed as reduction in S3P production at <50 uM pre-incubated for 30 mins before ATP and shikimate substrate addition by LC-MS assay.
The nature of data set [40]: Aggregation property of the compound in water at pH 7 assessed as light scattering intensity counts at 100 uM in presence of Triton X-100 by dynamic light scattering method. In kind it is physicochemical. The settings on record: buffer, pH 7, 100 µM.
A short description of data set [41]: Aggregation property of the compound in ammonium acetate buffer at pH 7.6 assessed as particle size at 100 uM in presence of Triton X-100 by dynamic light scattering method. The settings on record: pH 7.6, 100 µM. The class given is physicochemical.
Data set [42] can be described thus: Aggregation property of the compound in water at pH 7 assessed as particle size at 100 uM in absence of Triton X-100 by dynamic light scattering method. The class given is physicochemical. The settings on record: buffer, pH 7, 100 µM.
Data set [43] is described as follows: Aggregation property of the compound in potassium phosphate buffer at pH 7.2 assessed as micelle formation by measuring peal broadening at 6.25 to 200 uM by one-dimensional 1H-NMR spectroscopy. Conditions: pH 7.2, 200 µM. The class given is physicochemical.
Data set [44] can be described thus: Aggregation property of the compound in potassium phosphate buffer at pH 7.2 assessed as micelle formation by measuring peal broadening at 12.5 to 200 uM by one-dimensional 1H-NMR spectroscopy. The class given is physicochemical. Conditions: pH 7.2, 200 µM.

On to `COc1cc(C=O)ccc1OCc1ccccc1COc1ccc(/C=C2/SC(=S)NC2=O)cc1OC`, for which the Activity in data set [1] is recorded as 0 nm; in [2] it was 0 nm; in data set [3], 0 kCounts; in data set [4] it was 0 nm; in [6], 0 nm; in data set [7], 2 kCounts. Further, the Activity in [8] stood at 0 nm; in data set [9], 4 kCounts; in data set [10] it was 80 nm; in [11] it was 0 nm; in data set [12] it was 5 kCounts; in data set [13] it was 0 kCounts. Also, the Activity in data set [14] was 100 nm; in data set [15], 5 kCounts; in data set [16], 80 nm; in data set [17], 0 nm; in data set [18], 5 nm; in [21] it was 2 kCounts. Also, the Activity in data set [22] is listed as 4 kCounts; in data set [23], 0 Counts; in data set [24] it was 0 nm; in [26] it was 30 kCounts; in data set [27], 0 kCounts; in [28], 0 nm. Besides, the Activity in [29] came to 0 nm; in data set [31] it was 30 kCounts. For the same compound, the inhibition in data set [5] amounted to 96%; in data set [20] it was 98%; in data set [25], 83%; in data set [30] it was 55%. Besides, in data set [19], the concentration for half-maximal inhibition (IC50) stood at 10.1 µM.
As for `CCSc1ccc(C(=O)Nc2nnc(-c3ccco3)o2)cc1`, the Activity in [32] worked out at 1151 nm; in data set [33] it was 182 nm; in data set [34], 245 kCounts; in data set [35], 250 kCounts; in data set [37], 100 kCounts; in data set [40], 85 kCounts. Moreover, the figures for the Activity in [41], in data set [42] and in [43] were 185 nm, 1123 nm and “Active”, respectively. Also, in [36], the concentration for half-maximal inhibition (IC50) stood at 20.7 µM. In data set [38], this compound gave an IC90 of 0.71 µg/mL (≈ 2.25 µM). In data set [39], the inhibition is more than 90%.
Turning to `Nc1nc2ccc(OC(F)(F)F)cc2s1` [RILUZOLE], the Activity result in data set [44] was “Not Active”.

The inhibition is how much of the control response was suppressed. A word on the IC50: it is the point on the concentration scale where inhibition reaches its midpoint. For orientation: IC90 means the concentration at which the effect reaches the 90% level. A lower IC90 goes with greater potency.
